Paper PMC6005341, “Identification of “sarsasapogenin-aglyconed” timosaponins as novel Aβ-lowering modulators of amyloid precursor protein processing” (Chemical Science, 2016)
Like-named read-outs stand apart in the source and are kept apart here.

What was measured:
[1] = system: Aβ42 production in N2A-APPswe cells; test: Aβ42 in conditioned medium of N2A-APPswe cells by ELISA, 18 h treatment; assay type: cell-based; conditions: for IC50: mean ± standard deviation, n ≥ 3
Excerpt: Sigma-Aldrich Chemical Co. unless otherwise specified. SSG (1) was purchased from Wako Pure Chemical Industries, Ltd. Diosgenin (6), Dioscin (9), Polyphyllin D (10), Timosaponin BI (22) and Timosaponin BII (23) were purchased from Chengdu Must Bio-Technology Co.
Ltd. Yamogenin (7) was bought from Ambinter c/o Greenpharma while Smilagenin (24) was bought from Steraloids Inc. Substances dissolved in DMSO as stock solutions. Cell culture medium constituents were purchased from Life Technologies, Inc.
Cell culture: Neuro-2A cells expressing Swedish mutants of APP (N2A-APPswe provided by Prof. Yifan Han, The Hong Kong Polytechnic University)1 was cultured in minimal essential medium with 2 mM glutamine, 2 mM pyruvate and 10% fetal bovine serum. […]
(§1) Aβ ELISA: Aβ concentrations in conditioned medium were assayed using ELISA kits for […]

[2] = system: Aβ40 and Aβ38 in N2A-APPswe cells; test: Aβ40 and Aβ38 in conditioned medium of N2A-APPswe cells by ELISA; assay type: cell-based; conditions: compared with Aβ42
Method: as §1

Neuro-2A cells = test: Neurite outgrowth, type III β-tubulin immunostaining; assay type: cell-based; conditions: at concentrations that lower Aβ production, 18 h
Method: Immunofluorescence examination of neurite outgrowth: Neuro-2A cells were seeded at 1×105 per glass bottom dishes. After treatment, cells were fixed with 4% paraformaldyde for 10 min, permeabilized with 0.1% Triton X-100, and then blocked with 1% BSA in PBS.
The cells were incubated with monoclonal antibody raised against type III β-tubulin (Sigma) for 1 h followed by Alexa488 conjugated secondary antibody. Neurite morphology was examined under fluorescence microscope. […]

[3] = system: brain Aβ / amyloid in APPswe transgene; conditions: oral 25 mg/kg for 18 h, ref FASEB J. (2006) 20: E599; cited from earlier work
[4] = N2a-APPswe, read-out: IC50 in lowering Aβ42 production, N2A-APPswe cells
[5] = N2A-APPswe cells, read-out: IC50 in lowering Aβ42 production

SMILES | IC50 [1, 4] [µM] | Aβ42-lowering effect (in words) ([1]; N2A-APPswe cells) | other results
C[C@@H]1CC[C@@]2(OC1)O[C@H]1C[C@H]3[C@@H]4C[C@H](O)[C@H]5C[C@@H](O)CC[C@]5(C)[C@H]4CC[C@]3(C)[C@H]1[C@@H]2C [5α-H, 6α-OH diosgenin (15), 5α-H, 6α-OH diosgenin] | > 100 |  | 
C[C@H]1CC[C@@]2(OC1)O[C@H]1C[C@H]3[C@@H]4C[C@H](O)[C@H]5C[C@@H](O)CC[C@]5(C)[C@H]4CC[C@]3(C)[C@H]1[C@@H]2C [5α-H, 6α-OH yamogenin (17), 5α-H, 6α-OH yamogenin] | > 100 |  | 
C[C@@H]1CC[C@@]2(OC1)O[C@H]1C[C@H]3[C@@H]4C[C@@H](O)[C@@H]5C[C@@H](O)CC[C@]5(C)[C@H]4CC[C@]3(C)[C@H]1[C@@H]2C [5β-H, 6β-OH diosgenin (16), 5β-H, 6β-OH diosgenin] | > 100 | ineffective | 
C[C@H]1CC[C@@]2(OC1)O[C@H]1C[C@H]3[C@@H]4C[C@@H](O)[C@@H]5C[C@@H](O)CC[C@]5(C)[C@H]4CC[C@]3(C)[C@H]1[C@@H]2C [5β-H, 6β-OH yamogenin (18), 5β-H, 6β-OH yamogenin] | 45 ± 4 |  | 
C[C@H]1CC[C@@]2(OC1)O[C@H]1C[C@H]3[C@@H]4CC[C@@H]5C[C@@H](O[C@@H]6O[C@H](CO)[C@@H](O)[C@H](O)[C@H]6O)CC[C@]5(C)[C@H]4CC[C@]3(C)[C@H]1[C@@H]2C [AA (5), Asparagoside A] | ~6 | effectively lowered | effect on Aβ40 and Aβ38 [2]: much smaller effect
C[C@@H]1CC[C@@]2(OC1)O[C@H]1C[C@H]3[C@@H]4CC=C5C[C@@H](O[C@@H]6O[C@H](CO)[C@H](O)[C@H](O)[C@H]6O)CC[C@]5(C)[C@H]4CC[C@]3(C)[C@H]1[C@@H]2C [Capsicoside A3 (8), capsicoside A3] |  |  | IC50 [1, 5]: > 100 µM
C[C@@H]1CC[C@@]2(OC1)O[C@H]1C[C@H]3[C@@H]4CC=C5C[C@@H](O[C@@H]6O[C@H](CO)[C@@H](O[C@@H]7O[C@@H](C)[C@H](O)[C@@H](O)[C@H]7O)[C@H](O)[C@H]6O[C@@H]6O[C@@H](C)[C@H](O)[C@@H](O)[C@H]6O)CC[C@]5(C)[C@H]4CC[C@]3(C)[C@H]1[C@@H]2C [Compound 9, dioscin] |  | insignificant Aβ42-lowering effects | 
C[C@@H]1CC[C@@]2(OC1)O[C@H]1C[C@H]3[C@@H]4CC[C@H]5C[C@@H](O[C@@H]6O[C@H](CO)[C@@H](O[C@@H]7O[C@@H](C)[C@H](O)[C@@H](O)[C@H]7O)[C@H](O)[C@H]6O[C@@H]6O[C@@H](C)[C@H](O)[C@@H](O)[C@H]6O)CC[C@]5(C)[C@H]4CC[C@]3(C)[C@H]1[C@@H]2C [Compound 11, dihydrodioscin] |  | insignificant Aβ42-lowering effects | 
C[C@H](CO)CC[C@H]1O[C@H]2C[C@H]3[C@@H]4CC[C@@H]5C[C@@H](O)CC[C@]5(C)[C@H]4CC[C@]3(C)[C@H]2[C@@H]1C [Dihydrosarsasapogenin (21), dihydrosarsasapogenin] | > 100 |  | 
C[C@@H]1CC[C@@]2(OC1)O[C@H]1C[C@H]3[C@@H]4CC=C5C[C@@H](O)CC[C@]5(C)[C@H]4CC[C@]3(C)[C@H]1[C@@H]2C [Diosgenin (6), diosgenin] |  | no effect | IC50 [1, 5]: > 100 µM; neurite outgrowth (Neuro-2A cells): not shared
C[C@H]1CC[C@@]2(OC1)O[C@H]1C[C@H]3[C@@H]4CC[C@@H]5C[C@H](O)CC[C@]5(C)[C@H]4CC[C@]3(C)[C@H]1[C@@H]2C [Episarsasapogenin (20), episarsasapogenin] | > 100 | inactive | neurite outgrowth (Neuro-2A cells): not shared
CC(C)[C@@H](C)/C=C/[C@@H](C)[C@H]1CC[C@H]2C3=CC=C4C[C@@H](O)CC[C@]4(C)[C@H]3CC[C@]12C [Ergosterol, reference compound] |  |  | IC50 [1, 5]: > 100 µM
CC1CCC2(OC1)OC1CC3C4CCC5CC(OCC(=O)O)CCC5(C)C4CCC3(C)C1C2C (stereo not shown) [Ethereal SSG (29), ethereal SSG] | 27 ± 8 |  | 
C[C@H]1CC[C@@]2(OC1)O[C@H]1C[C@H]3[C@@H]4CC[C@H]5C[C@@H](O)CC[C@]5(C)[C@H]4CC[C@]3(C)[C@H]1[C@@H]2C [Neotigogenin (14), neotigogenin] | > 100 | ineffective | neurite outgrowth (Neuro-2A cells): not shared
CC(C)=CCC[C@](C)(O)[C@H]1CC[C@]2(C)[C@@H]1[C@H](O)C[C@@H]1[C@@]3(C)CC[C@H](O[C@@H]4O[C@H](CO)[C@@H](O)[C@H](O)[C@H]4O[C@@H]4O[C@H](CO)[C@@H](O)[C@H](O)[C@H]4O)C(C)(C)[C@@H]3CC[C@]12C [Rg3] |  |  | Brain Aβ1-42 reduced by [3]: 30%
C[C@H]1CC[C@@]2(OC1)O[C@H]1C[C@H]3[C@@H]4CC[C@@H]5CC(=O)CC[C@]5(C)[C@H]4CC[C@]3(C)[C@H]1[C@@H]2C [Sarsasapogenone (19), sarsasapogenone] | 50 ± 5 | comparable effect to 1 | 
C[C@@H]1CC[C@@]2(OC1)O[C@H]1C[C@H]3[C@@H]4CC[C@@H]5C[C@@H](O)CC[C@]5(C)[C@H]4CC[C@]3(C)[C@H]1[C@@H]2C [Smilagenin (24), smilagenin] | > 100 | ineffective | neurite outgrowth (Neuro-2A cells): not shared
C[C@H]1CC[C@@]2(OC1)O[C@H]1C[C@H]3[C@@H]4CC[C@@H]5C[C@@H](O[C@@H]6O[C@H](CO)[C@H](O[C@@H]7O[C@H](CO)[C@@H](O)[C@H](O)[C@H]7O)[C@H](O)[C@H]6O[C@@H]6O[C@H](CO)[C@@H](O)[C@H](O)[C@H]6O)CC[C@]5(C)[C@H]4CC[C@]3(C)[C@H]1[C@@H]2C [TAV (4), timosaponin A V] | ~4.2 | effectively lowered | effect on Aβ40 and Aβ38 [2]: much smaller effect
C[C@@H]1CC[C@@]2(OC1)O[C@H]1C[C@H]3[C@@H]4CC[C@H]5C[C@@H](O)CC[C@]5(C)[C@H]4CC[C@]3(C)[C@H]1[C@@H]2C [Tigogenin (13), tigogenin] | > 100 | ineffective | neurite outgrowth (Neuro-2A cells): not shared
CO[C@]1(CC[C@H](C)CO[C@@H]2O[C@H](CO)[C@@H](O)[C@H](O)[C@H]2O)O[C@H]2C[C@H]3[C@@H]4CC[C@@H]5C[C@@H](O[C@@H]6O[C@H](CO)[C@H](O)[C@H](O)[C@H]6O[C@@H]6O[C@H](CO)[C@@H](O)[C@H](O)[C@H]6O)CC[C@]5(C)[C@H]4CC[C@]3(C)[C@H]2[C@@H]1C [Timosaponin B I (22), Timosaponin B I] | > 100 | ineffective | 
C[C@H]1CC[C@@]2(OC1)O[C@H]1C[C@H]3[C@@H]4CC=C5C[C@@H](O)CC[C@]5(C)[C@H]4CC[C@]3(C)[C@H]1[C@@H]2C [Yamogenin (7), yamogenin] |  | no effect | IC50 [1, 5]: > 100 µM; neurite outgrowth (Neuro-2A cells): not shared
COC1OC(CNC(=O)COC2CCC3(C)C(CCC4C3CCC3(C)C4CC4OC5(CCC(C)CO5)C(C)C43)C2)C(O)C(O)C1O (stereo not drawn) [α-OMe SSG (32), α-OMe SSG] | 7.2 ± 2.2 |  | 
COC1OC(Cn2cc(COC3CCC4(C)C(CCC5C4CCC4(C)C5CC5OC6(CCC(C)CO6)C(C)C54)C3)nn2)C(O)C(O)C1O (stereo not drawn) [α-OMe triazole SSG (28), α-OMe triazole SSG] | 6.5 ± 2.1 |  | 
COC1OC(CNC(=O)COC2CCC3(C)C(CCC4C3CCC3(C)C4CC4OC5(CCC(C)CO5)C(C)C43)C2)C(O)C(O)C1O (stereo not drawn) [β-OMe SSG (33), β-OMe SSG] |  |  | IC50 ([1]; read-out: IC50 in lowering Aβ42 production, N2A-APPswe cells): 9.3 ± 3.5 µM
